According to patent publication US20120195938A1, “FORMULATIONS AND METHODS FOR RECOVERY FROM DENTAL SURGERY” (priority 2007, published 2012):

Experiments:
[1] = test system: glycoprotein-IIβ (GPIIβ or GPIIB); assay: RT-PCR gene expression in hMSCs: GPIIB; format: cell-based, Human; conditions: hMSC, growth media, melatonin 3 × 10^−7 molar, dexamethasone 1 × 10^−7 molar
Protocol: (§1) Human mesenchymal stem cells (hMSCs) were purchased through LONZA BIOSCIENCES. These cells were seeded at a density of approximately 7500 cells/cm^2 upon receipt. Since hMSCs spontaneously differentiate into various cell types after 8 to 9 passages, cells passaged 3 to 4 times were used for each of the examples disclosed herein. Supplemented DMEM media was refreshed every third day during culture.
(§2) Cultures of hMSCs were passaged in growth medium until a sufficient number of flasks for differentiation studies were obtained. Growth medium was removed and replaced with a variety of experimental solutions as described more fully hereinbelow. For qualitative alkaline phosphatase assays described below, the cells were seeded on collagen coated cover slips (BIOCOAT®) at 2000 cells/cm^2. A volume of 3 ml of media was placed into the wells for 5 and 15 days according to the procedures below. For the reverse-transcriptase polymerase chain reaction studies described below, the cells were cultured in their respective media for 5, 10, or 20 days.
(§3) Cells were plated and grown using the general techniques described in Examples 1 and 2. The expression of numerous genes was assessed for cells at Days 5, 10, and 20. Cells were grown in the media as detailed in Tables 1 and 2 below. The expression of the indicated genes was assessed and reported as x-fold increases over the level of normalized gene expression to glyceraldehyde-3-phosphate dehydrogenase (GAPDH) in cells cultured in grown medium (Table 1).
The genes of interest were selected based upon their appearance in platelets and mesenchymal stem cells differentiating into osteoblasts. Glyceraldehyde-3 phosphate dehydrogenase (GAPDH) is a well characterized housekeeper gene for differentiating hMSCs. The primers used were: forward: 5′ […] (SEQ ID No. 1), reverse: […] (SEQ ID No. 2). The gene for bone sialoprotein (BSP) was chosen because it is expressed during the differentiation of hMSCs, prior to the mineralization phase, but represents a mature functioning osteoblast. The primers were forward: 5′ […] (SEQ ID No. 3), reverse: […] (SEQ ID No. 4). The gene BGLAP (osteocalcin) was chosen because it is definitive marker for functioning osteoblasts at 21 days. The primers were: forward: 5′ […] (SEQ ID No. 5), reverse: […] (SEQ ID No. 6). The gene for glycoprotein-IIβ (GPIIβ or GPIIB) was chosen because it is expressed in developing megakaryocytes and found in platelets. The primers were: forward: […] (SEQ ID No. 7), reverse: […] (SEQ ID No. 8).
The reaction protocol was completed in a BIO-RAD CHROMO4 Real Time Detection System using the iScript One-Step RT-PCR Kit (BIO-RAD, Hercules, Calif.). Each reaction mixture contained 100 nM of RNA. […] The data was collected and analyzed using the MC OPTICON software.

Runx2 = assay: RT-PCR gene expression in hMSCs: Runx2; format: cell-based, Human; conditions: hMSC, growth media, melatonin 3 × 10^−7 molar, dexamethasone 1 × 10^−7 molar
Protocol: as §1, §2, §3
The reaction protocol was completed in a BIO-RAD CHROMO4 Real Time Detection System using the iScript One-Step RT-PCR Kit (BIO-RAD, Hercules, Calif.). Each reaction mixture contained […] of RNA. The 50 μL reaction mixture was placed in the thermal cycler and incubated at 55° C. for 10 minutes, 5 minutes at 95° C. for cDNA synthesis and reverse transcriptase inactivation. The PCR cycling was completed after 45 cycles; 10 seconds at 95° C., 30 seconds at 57° C. A melt curve analysis was completed; 1 minute at 95° C., 1 minute at 55° C. and 10 seconds at 55° C. for 80 cycles, increasing 0.5° C. each cycle. The data was collected and analyzed using the MC OPTICON software.
For the second PCR run, the gene Runx2 was included instead of BSP. Runx2 is a transcription factor required for all remaining steps of osteoblastic differentiation to occur. Accordingly, it is a specific early marker of osteoblastic differentiation.

BGLAP (osteocalcin) = assay: RT-PCR gene expression in hMSCs: osteocalcin; conditions: hMSC, growth media, melatonin 3 × 10^−7 molar, dexamethasone 1 × 10^−7 molar
[2] = test system: alkaline phosphatase activity in hMSC cultures; assay: Quantitative alkaline phosphatase assay in hMSC cultures; format: cell-based, Human; conditions: differentiation medium, dexamethasone 1×10^−7 M, melatonin 3×10^−7 M, 3.5% (v/v) PRP
Protocol: Human mesenchymal stem cells (hMSCs) were purchased through LONZA BIOSCIENCES. These cells were seeded at a density of approximately 7500 cells/cm^2 upon receipt. Since hMSCs spontaneously differentiate into various cell types after 8 to 9 passages, cells passaged 3 to 4 times were used for each of the examples disclosed herein. Supplemented DMEM media was refreshed every third day during culture. Cultures of hMSCs were passaged in growth medium until a sufficient number of flasks for differentiation studies were obtained. Growth medium was removed and replaced with a variety of experimental solutions as described more fully hereinbelow. For qualitative alkaline phosphatase assays described below, the cells were seeded on collagen coated cover slips (BIOCOAT®) at 2000 cells/cm^2. A volume of 3 ml of media was placed into the wells for 5 and 15 days according to the procedures below. […] At 5 days and 15 days, cultures in each condition were quantitatively assessed for alkaline phosphatase activity (μg of alkaline phosphatase per mL of solution). Quantitative alkaline phosphatase assays (ANASPEC, California) were completed according to manufacturers' instructions. […] The plate was incubated at room temperature for 30 minutes and the developing color was measured immediately using a BIO-TEK KINETIC MICROPLATE READER Model E[…] […]

[3] = test system: human periodontal ligament cells; conditions: media supplemented; Hayami et al., Bone (2007); cited from earlier work

Row | alkaline phosphatase activity ([2]; Day 5, FIG. 1B) | alkaline phosphatase activity ([2]; Day 15, FIG. 1B) | Structure (SMILES) | GPIIB mRNA expression, x-fold increase compared to untreated growth control ([1]; Day 10, n = 3) [x-fold] | GPIIB mRNA expression, x-fold increase compared to untreated growth control ([1]; Day 20, n = 3) [x-fold] | Runx2 mRNA expression, x-fold increase compared to untreated growth control (Runx2; Day 5, n = 3) [x-fold] | Runx2 mRNA expression, x-fold increase compared to untreated growth control (Runx2; Day 10, n = 3) [x-fold] | Runx2 mRNA expression, x-fold increase compared to untreated growth control (Runx2; Day 20, n = 3) [x-fold] | Osteocalcin mRNA expression, x-fold increase compared to untreated growth control (BGLAP (osteocalcin); Day 5, n = 3) [x-fold] | Osteocalcin mRNA expression, x-fold increase compared to untreated growth control (BGLAP (osteocalcin); Day 10, n = 3) [x-fold] | Osteocalcin mRNA expression, x-fold increase compared to untreated growth control (BGLAP (osteocalcin); Day 20, n = 3) [x-fold] | Osteocalcin mRNA expression, x-fold increase compared to untreated growth control (BGLAP (osteocalcin); Day 5, n = 3, listed as melatonin) | osteoblast-specific cell markers in culture [3]
1 |  |  | C[C@@H]1C[C@H]2[C@@H]3CCC4=CC(=O)C=C[C@]4(C)[C@@]3(F)[C@@H](O)C[C@]2(C)[C@@]1(O)C(=O)CO [Dexamethasone, dexamethasone] | 11.59 | 4993.43 | 138.04 | 4.16 | 15.29 | 70.22 | 142.21 | 998.82 |  | 
2 | showed an effect | elevated alkaline phosphatase activity | COc1ccc2[nH]cc(CCNC(C)=O)c2c1 [Melatonin, melatonin] | 968.86 | 2432.97 | 269.75 | 14.39 | 129.83 | 260.38 | 1269.3 | 1295.79 | high levels | 
3 |  |  | C[C@@H]1C[C@H]2[C@@H]3CCC4=CC(=O)C=C[C@]4(C)[C@@]3(F)[C@@H](O)C[C@]2(C)[C@@]1(O)C(=O)COP(=O)(O)O [dexamethasone sodium phosphate solution, Dexamethasone sodium phosphate] |  |  |  |  |  |  |  |  |  | increased osteoblast-specific cell markers
